Results on one compound are retold here after patent US20110015120A1, “Pharmaceutical and cosmetic compositions including lactoferrin, ciclopirox, etidronic acid” (VALETUDO S . r . l ., priority 2009, published 2011).

Structures are written as SMILES. Where “and” joins values, the source holds several entries; their conditions need not be identical. Equal values may be shown once. Entries after “also recorded” stand apart in the source; their conditions may differ.

The experiment has as its system MALASSEZIA GLOBOSA. The experiment in a line: Inhibition of Malassezia globosa growth, colony count (UFC/ml) on Dixon's Agar. The experiment is classed as cell-based. Conditions: for dil 10X colony count: 200 μl of suspension diluted 10X on Petri dish; for dil 10X colony count / X50 (calculation made based on the dilution): three replicates; for AVERAGE: average of three replicates; for % reduction of Malassezia globosa cells growth (% increase of antimycotic activity): compared to CICLOPIROXOLAMINE alone; for X50 (calculation made based on the dilution): dil 10X count x50. How it is done:
To assess the capacity of the LACTOFERRIN to enhance the antimycotic action of the CIPROPIROXOLAMIN, a suspension of a MALASSEZIA GLOBOSA STRAIN is inoculated on a specific culture medium and the capacity of the compounds to inhibit the mycotic growth is observed, by counting of the UFC/ml.
As first approach, the two compounds are tested at the concentration of 1:500 and, subsequently, diluted in culture medium at 2 decreasing concentrations (10× and 100×) in order to visualize the individual activities. Then in order to evaluate the capacity of the LACTOFERRIN to increase the antimycotic effect of the CICLOPIROXOLAMIN, the same test was carried out on the mix of the two active ingredients at different ratios (1:2 and 1:5).
Each test was performed three times and the incubation times were 1 and 4 hours respectively.
Based on the results obtained, the best dilution for the execution of the tests was the 10× dilution and both the incubation times (1 hour and 4 hours) were taken into consideration since the experimental conditions permitted an accurate count to be carried out of the colonies on the Petri dishes.
The microorganism used is MALASSEZIA GLOBOSA.
The microorganisms were cultured in specific culture medium (Dixon's Agar) until reaching a concentration of approximately […] per ml. Aliquots of 1 ml of this inoculum were then taken to which were added respectively: • Ciclopiroxolamine 1:500 • Lactoferrin 1:500 • Mixture 1:2 Ciclopiroxolamine:lactoferrin • Mixture 1:5 Ciclopiroxolamine:lactoferrin
As positive control, the untreated inoculum was used (MALASSEZIA and diluting liquid), as negative controls the two active ingredients in diluting liquid.
After incubations of 1 hour and 4 hours respectively, aliquots of 200 μl of each suspension were spread on Petri dishes.
For each treatment, the test was carried out three times and for 3 different dilutions (non diluted suspension (TQ), dilution 10× and dilution 100×).
The 54 dishes obtained were then examined, after incubation of 5-6 days and the microbial load of each specimen was calculated (UFC/ml).
The % increase of the antimycotic property corresponds to the % reduction of the growth of Malassezia Globosa

As for `Cc1cc(C2CCCCC2)n(O)c(=O)c1` [CICLOPIROXOLAMINE, Ciclopirox Olamine], the “reduction in the growth of Malassezia Globosa (in words)” value (after four hours of incubation) is recorded as “marked reduction”. Moreover, the “reduction in the growth of Malassezia Globosa (in words)” value (after one hour of incubation) is given as “marked reduction”. Further, the “antimycotic activity towards Malassezia Globosa (in words)” value (overall statement) is recorded as “decidedly more effective in reducing the growth compared to the LACTOFERRIN; also recorded: marked antimycotic activity”. In addition, where the note is “period of incubation 1 hour”, the “Log (AVERAGE)” value turned out to be 3.985; the “dil 10X colony count” value was 208 and 170 and 202; the AVERAGE is listed as 9666.667 UFC/ml; the “% reduction of Malassezia globosa cells growth (% increase of antimycotic activity)” value came out at 0%. In addition, the “X50 (calculation made based on the dilution)” value (period of incubation 1 hour) was 10400 UFC/ml and 8500 UFC/ml and 10100 UFC/ml. In addition, for the setting “period of incubation 4 hour”, the “Log (AVERAGE)” value came out at 3.209; the “dil 10X colony count” value was 38 and 34 and 25; the AVERAGE was 1616.667 UFC/ml; the “% reduction of Malassezia globosa cells growth (% increase of antimycotic activity)” value amounted to 0%. For the same compound, the “X50 (calculation made based on the dilution)” value (period of incubation 4 hour) is 1900 UFC/ml and 1700 UFC/ml and 1250 UFC/ml.
